Laboratory results: PubChem BioAssay (NCI)
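Step 1: Grow cells in 96-well plates. Step 2: Expose to compound for 48 hours at 5 concentrations. Step 3: Interpolate endpoints linearly; if unreached, use highest concentration. TGI is the concentration that stops growth completely.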

How the values were obtained:
Test in all cases: NCI-60 cell line screen, 48 h
[1] = test system: M14 melanoma
[2] = test system: MALME-3M melanoma
[3] = test system: BT-549 breast
[4] = test system: NCI-H460 lung
[5] = test system: OVCAR-3 ovarian
[6] = test system: SF-268 CNS
[7] = test system: DU-145 prostate
[8] = test system: UACC-62 melanoma
[9] = test system: A549 NSCLC
[10] = test system: HOP-92 NSCLC
[11] = test system: HCT-116 colon
[12] = test system: MDA-N
[13] = test system: UO-31 renal
[14] = test system: K-562 leukemia
[15] = test system: HCT-15 colon
[16] = test system: A498 renal
[17] = test system: SR leukemia
[18] = test system: TK-10 renal
[19] = test system: U251 CNS
[20] = test system: SF-295 CNS
[21] = test system: HOP-62 NSCLC
[22] = test system: PC-3 prostate
[23] = test system: HT29 colon
[24] = test system: MDA-MB-435
[25] = test system: LOX IMVI melanoma
[26] = test system: OVCAR-8 ovarian
[27] = test system: MDA-MB-231 breast
[28] = test system: UACC-257 melanoma
[29] = test system: SNB-75 CNS
[30] = test system: MCF7 breast
[31] = test system: SN12C renal
[32] = test system: RXF 393 renal
[33] = test system: COLO 205 colon
[34] = test system: CAKI-1 renal
[35] = test system: SW-620 colon
[36] = test system: HS 578T breast
[37] = test system: OVCAR-4 ovarian
[38] = test system: NCI-H226 lung
[39] = test system: SK-MEL-2 melanoma
[40] = test system: NCI/ADR-RES ovarian
[41] = test system: NCI-H23 lung
[42] = test system: HCC-2998 colon
[43] = test system: T-47D breast
[44] = test system: SK-OV-3 ovarian
[45] = test system: HL-60(TB) leukemia
[46] = test system: IGROV1 ovarian
[47] = test system: SF-539 CNS
[48] = test system: OVCAR-5 ovarian
[49] = test system: SK-MEL-5 melanoma
[50] = test system: EKVX NSCLC
[51] = test system: ACHN renal
[52] = test system: RPMI-8226 leukemia
[53] = test system: CCRF-CEM leukemia
[54] = test system: 786-0 renal
[55] = test system: MOLT-4 leukemia
[56] = test system: SK-MEL-28 melanoma
[57] = test system: SNB-19 CNS
[58] = test system: KM12 colon

For O=C1CC2(CCC(O)(c3ccco3)C(C(=O)c3ccco3)C2)C(=O)c2ccccc2N1 (stereo unspecified), the TGI [1] was > 100 µM, the TGI [2] was > 100 µM and the TGI [3] was > 100 µM. For the same compound, the TGI [4] was > 100 µM, the TGI [5] was > 100 µM and the TGI [6] was > 100 µM. For the same compound, the TGI [7] was > 100 µM, the TGI [8] was > 100 µM and the TGI [9] was > 100 µM. For the same compound, the TGI [10] was > 100 µM, the TGI [11] was > 100 µM and the TGI [12] was > 100 µM. The TGI [13] was > 100 µM, the TGI [14] was > 100 µM and the TGI [15] was > 100 µM. The TGI [16] was > 100 µM, the TGI [17] was > 100 µM and the TGI [18] was > 100 µM. For the same compound, the TGI [19] was > 100 µM, the TGI [20] was > 100 µM and the TGI [21] was > 100 µM. For the same compound, the TGI [22] was > 100 µM, the TGI [23] was > 100 µM and the TGI [24] was > 100 µM. The TGI [25] was > 100 µM, the TGI [26] was > 100 µM and the TGI [27] was > 100 µM. The TGI [28] was > 100 µM, the TGI [29] was > 100 µM and the TGI [30] was > 100 µM. For the same compound, the TGI [31] was > 100 µM, the TGI [32] was > 100 µM and the TGI [33] was > 100 µM. For the same compound, the TGI [34] was > 100 µM, the TGI [35] was > 100 µM and the TGI [36] was > 100 µM. The TGI [37] was 57 µM, the TGI [38] was > 100 µM and the TGI [39] was > 100 µM. The TGI [40] was > 100 µM, the TGI [41] was > 100 µM and the TGI [42] was > 100 µM. For the same compound, the TGI [43] was 81.7 µM, the TGI [44] was > 100 µM and the TGI [45] was > 100 µM. The TGI [46] was > 100 µM, the TGI [47] was > 100 µM and the TGI [48] was > 100 µM. The TGI [49] was > 100 µM and the TGI [50] was > 100 µM.

With C=CCCC1CCCCNC1=S (stereo unspecified) the TGI [1] was > 10 µM, the TGI [2] was > 10 µM and the TGI [3] was > 10 µM. For the same compound, the TGI [4] was > 10 µM, the TGI [5] was > 10 µM and the TGI [6] was > 10 µM. The TGI [7] was > 10 µM, the TGI [51] was > 10 µM and the TGI [8] was > 10 µM. The TGI [52] was > 10 µM, the TGI [9] was > 10 µM and the TGI [11] was > 10 µM. For the same compound, the TGI [12] was > 10 µM, the TGI [53] was > 10 µM and the TGI [13] was > 10 µM. For the same compound, the TGI [14] was > 10 µM, the TGI [15] was > 10 µM and the TGI [16] was > 10 µM. For the same compound, the TGI [17] was > 10 µM, the TGI [18] was > 10 µM and the TGI [19] was > 10 µM. For the same compound, the TGI [20] was > 10 µM, the TGI [21] was > 10 µM and the TGI [22] was > 10 µM. For the same compound, the TGI [23] was > 10 µM, the TGI [24] was > 10 µM and the TGI [25] was > 10 µM. For the same compound, the TGI [26] was > 10 µM, the TGI [27] was > 10 µM and the TGI [28] was > 10 µM. For the same compound, the TGI [30] was > 10 µM, the TGI [54] was > 10 µM and the TGI [31] was > 10 µM. The TGI [32] was > 10 µM, the TGI [55] was > 10 µM and the TGI [33] was > 10 µM. The TGI [34] was > 10 µM, the TGI [35] was > 10 µM and the TGI [36] was > 10 µM. The TGI [37] was > 10 µM, the TGI [56] was > 10 µM and the TGI [57] was > 10 µM. The TGI [38] was > 10 µM, the TGI [39] was > 10 µM and the TGI [40] was > 10 µM. For the same compound, the TGI [41] was > 10 µM, the TGI [58] was > 10 µM and the TGI [42] was > 10 µM. For the same compound, the TGI [43] was > 10 µM, the TGI [44] was > 10 µM and the TGI [45] was > 10 µM. For the same compound, the TGI [46] was > 10 µM, the TGI [47] was > 10 µM and the TGI [48] was > 10 µM. For the same compound, the TGI [49] was > 10 µM and the TGI [50] was > 10 µM.
